Tests used:
Assay type in all cases: biochemical
[1] = biological target: T1, wild type (wt) beta-glucocerebrosidase (Homo sapiens, UniProt P04062); assay: beta-glucocerebrosidase activity assay in HL60 lysate (4MU-β-D-glc); settings: at a concentration of 100 μM, 0.5 mM 4MU-β-D-glc;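 note: fluorometric read-out of 4MU liberated from the substrate (ex 360 nm, em 450 nm) after 37 °C incubation, reaction stopped with sodium carbonate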
T1 construct: The lysates were used as a source for wild type (wt) beta-glucocerebrosidase; endogenous in cells; host or cells: HL60 (ECACC No. 98070106) lysate
T1 sequence (P04062 40-536): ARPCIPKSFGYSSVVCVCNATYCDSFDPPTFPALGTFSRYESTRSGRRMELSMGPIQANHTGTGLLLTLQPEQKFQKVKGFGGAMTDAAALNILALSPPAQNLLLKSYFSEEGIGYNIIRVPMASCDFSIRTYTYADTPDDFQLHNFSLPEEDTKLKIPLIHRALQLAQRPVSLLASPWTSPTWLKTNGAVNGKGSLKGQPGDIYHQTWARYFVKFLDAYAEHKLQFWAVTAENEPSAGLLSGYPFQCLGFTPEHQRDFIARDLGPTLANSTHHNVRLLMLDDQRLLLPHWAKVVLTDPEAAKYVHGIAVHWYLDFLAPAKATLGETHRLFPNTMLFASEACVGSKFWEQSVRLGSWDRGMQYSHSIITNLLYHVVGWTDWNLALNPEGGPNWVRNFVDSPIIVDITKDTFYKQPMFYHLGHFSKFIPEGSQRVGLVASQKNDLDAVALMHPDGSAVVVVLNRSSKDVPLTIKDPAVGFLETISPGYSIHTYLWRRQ

[2] = biological target: T2, wild type (wt) alpha-galactosidase (Homo sapiens, UniProt P06280); assay: alpha-galactosidase activity assay in HL60 lysate (4MU-α-D-gal); settings: at a concentration of 100 uM, 0.5 mM 4MU-α-D-gal, pH 4.5
T2 construct: The lysates were used as a source for wild type (wt) alpha-galactosidase; endogenous in cells; host or cells: HL60 (ECACC No. 98070106) lysate
T2 sequence (P06280 32-429): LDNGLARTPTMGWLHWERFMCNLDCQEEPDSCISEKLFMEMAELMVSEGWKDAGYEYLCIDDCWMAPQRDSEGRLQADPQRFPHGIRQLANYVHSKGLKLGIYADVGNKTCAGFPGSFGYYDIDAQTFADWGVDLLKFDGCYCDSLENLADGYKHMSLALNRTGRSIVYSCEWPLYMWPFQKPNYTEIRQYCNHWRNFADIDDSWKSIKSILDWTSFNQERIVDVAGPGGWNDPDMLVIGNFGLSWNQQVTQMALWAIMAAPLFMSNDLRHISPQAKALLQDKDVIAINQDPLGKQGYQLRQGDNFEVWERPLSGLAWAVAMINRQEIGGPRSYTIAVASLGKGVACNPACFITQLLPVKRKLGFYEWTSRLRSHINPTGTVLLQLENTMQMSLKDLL

[3] = biological target: T3, Jack bean α-D-mannosidase (Canavalia ensiformis, UniProt C0HJB3); assay: α-mannosidase activity assay with p-nitrophenyl-α-D-mannopyranoside (Example 1)
T3 construct: purchased Sigma M7257
T3 sequence (C0HJB3 1-981): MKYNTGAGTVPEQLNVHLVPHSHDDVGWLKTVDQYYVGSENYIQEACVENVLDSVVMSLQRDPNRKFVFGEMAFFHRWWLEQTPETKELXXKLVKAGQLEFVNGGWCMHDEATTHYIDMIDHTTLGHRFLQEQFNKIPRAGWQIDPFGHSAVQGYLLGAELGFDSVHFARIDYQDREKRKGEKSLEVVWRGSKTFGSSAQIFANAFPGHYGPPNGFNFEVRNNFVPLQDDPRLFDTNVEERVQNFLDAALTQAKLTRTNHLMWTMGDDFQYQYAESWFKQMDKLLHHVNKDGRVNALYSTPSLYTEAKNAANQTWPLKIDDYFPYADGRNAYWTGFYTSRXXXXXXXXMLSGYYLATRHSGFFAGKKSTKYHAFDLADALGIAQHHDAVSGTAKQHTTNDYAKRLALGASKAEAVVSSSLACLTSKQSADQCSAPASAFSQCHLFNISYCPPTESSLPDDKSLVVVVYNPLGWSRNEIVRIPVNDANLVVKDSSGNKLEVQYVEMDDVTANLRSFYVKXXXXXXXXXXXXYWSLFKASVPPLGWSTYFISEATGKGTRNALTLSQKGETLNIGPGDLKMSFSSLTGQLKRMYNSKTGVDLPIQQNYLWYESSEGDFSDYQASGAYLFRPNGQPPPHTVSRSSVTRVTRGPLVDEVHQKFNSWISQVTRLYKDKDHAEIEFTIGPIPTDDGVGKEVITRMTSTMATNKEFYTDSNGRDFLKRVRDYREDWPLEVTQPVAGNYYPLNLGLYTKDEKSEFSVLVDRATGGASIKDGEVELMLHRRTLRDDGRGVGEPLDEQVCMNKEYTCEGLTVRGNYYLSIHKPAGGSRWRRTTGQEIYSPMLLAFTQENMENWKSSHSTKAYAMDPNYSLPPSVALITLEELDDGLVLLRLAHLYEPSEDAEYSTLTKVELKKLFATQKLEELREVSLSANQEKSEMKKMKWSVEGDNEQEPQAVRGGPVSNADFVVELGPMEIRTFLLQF
Experimental: Solutions of 0.2M Mcllvane buffer at pH 4.5 and 5 mM p-nitrophenyl-α-D-mannopyranoside (Sigma, N2127), dissolved in the buffer, were prepared. A solution of Jack bean α-D-mannosidase enzyme (Sigma, M7257, 22 Units/mg, 6.2 mg/ml.) was also prepared at 0.6 Units/ml in the buffer.
The incubation mixture consisted of 10 μl enzyme solution, 10 μl of 1 mg/ml aqueous iminosugar solution and 50 μl of 5 mM substrate made up in buffer at the optimum pH for the enzyme. The reactions were stopped by addition of 70 μl 0.4M glycine (pH 10.4) during the exponential phase of the reaction, which had been determined at the beginning using uninhibited assays in which water replaced inhibitor. Final absorbances were read at 405 nm using a Versamax microplate reader (Molecular Devices). Assays were carried out in triplicate, and the values given are means of the three replicates. Results were expressed as a percentage of uninhibited assays in which water replaced inhibitor.

[4] = tested on: N-acetyl-β-D-glucosaminidase (Bovine kidney); assay: glycosidase assay with p-nitrophenyl substrates (Example 2); settings: 10 μl of 5 mM iminosugar solution in 70 μl incubation mixture; 20° C.
Experimental: (§1) The assays were conducted as described by Watson et al. 1997, Phytochemistry 46: 255-259 using p-nitrophenyl-substrates. Assays were carried out in microtitre plates. Enzymes were assayed in 0.1M citric acid/0.2M di-sodium hydrogen phosphate (Mcllvaine) buffers at the optimum pH for the enzyme. All assays were carried out at 20° C. All enzymes and substrates were purchased from Sigma Aldrich Chemicals Limited. The incubation mixture consisted of 10 μl of enzyme solution, 10 μl of the iminosugars solution (made up in deionised water at 5 mM) and 50 μl of the appropriate 5 mM p-nitrophenyl substrate made up in McIlvaine buffer at the optimum pH for the enzyme. The reactions were stopped with 0.4M glycine (pH 10.4) during the exponential phase of the reaction, which was determined at the beginning of the assay using blanks with water, which were incubated for a range of time periods to measure the reaction rate using 5 mM substrate solution. Absorbances were read at 405 nm. Water was substituted for the inhibitors in the blanks.
(§2) The glycosidases used were α-D-glucosidase (yeast), α-D-glucosidase (Bacillus sterothermophilus), α-D-glucosidase (rice), amyloglucosidase (Aspergillus niger), β-D-glucosidase (almond), α-D-galactosidase (green coffee beans), β-D-galactosidase (bovine liver), α-L-fucosidase (bovine kidney), α-D-mannosidase (Jack bean), β-D-mannosidase (Cellullomonas fimi), Naringinase (Penicillium decumbens), N-acetyl-β-D-glucosaminidase (Bovine kidney), N-acetyl-β-D-glucosaminidase (Aspergillus oryzae) and N-acetyl-β-D-glucosaminidase (Jack bean)

[5] = biological target: T4, α-D-galactosidase (green coffee beans) (Coffea arabica, UniProt Q42656); assay: as above; settings: 10 μl of 5 mM iminosugar solution in 70 μl incubation mixture; 20° C.; read-out: Promotion of glycosidase activity: α-D-galactosidase (Green coffee bean)
T4 construct: purchased Sigma Aldrich Chemicals Limited
T4 sequence (Q42656 16-378): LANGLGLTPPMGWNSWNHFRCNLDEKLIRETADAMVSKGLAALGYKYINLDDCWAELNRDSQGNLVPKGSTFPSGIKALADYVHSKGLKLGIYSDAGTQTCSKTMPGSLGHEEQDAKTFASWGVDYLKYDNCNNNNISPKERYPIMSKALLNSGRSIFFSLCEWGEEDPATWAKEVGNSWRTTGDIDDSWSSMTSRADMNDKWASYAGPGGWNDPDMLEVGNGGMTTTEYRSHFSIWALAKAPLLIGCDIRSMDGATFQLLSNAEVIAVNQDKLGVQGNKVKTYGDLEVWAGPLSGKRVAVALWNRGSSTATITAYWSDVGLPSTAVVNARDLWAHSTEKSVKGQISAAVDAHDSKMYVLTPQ
Experimental: as §1, §2

[6] = tested on: α-D-glucosidase (Bacillus sterothermophilus); assay: as above; settings: 10 μl of 5 mM iminosugar solution in 70 μl incubation mixture; 20° C.
Experimental: as §1, §2

[7] = biological target: T5, α-D-mannosidase (Jack bean) (Canavalia ensiformis, UniProt C0HJB3); assay: as above; settings: 10 μl of 5 mM iminosugar solution in 70 μl incubation mixture; 20° C.
T5 construct: purchased Sigma Aldrich Chemicals Limited
T5 sequence (C0HJB3 1-981): T3 sequence (C0HJB3 1-981)
Experimental: as §1, §2

[8] = Jack Bean α-mannosidase, p-nitrophenyl-α-D-mannopyranoside as the substrate

Row | Compound | promotion of the mannosidase activity (in words) [3, 8] | activation at 714 µM [5] [%] | Promotion of glycosidase activity: α-D-glucosidase (Bacillus sterothermophilus) [6] | further results
1 | O[C@@H]1[C@@H](O)[C@H](O)[C@]2(O)CC[C@H]1N2 [Compound 21, (1R,2S,3R,4S,5R)-8-azabicyclo[3.2.1]octane-1,2,3,4-tetraol] | – | – | – | inhibition at 100 µM [1]: > 50%; inhibition at 100 µM [2]: > 50%
2 | O=C(O)[C@@]1(O)CNC[C@@H](O)[C@H]1O [Compound 87, (3R,4R,5R)-3,4,5-trihydroxypiperidine-3-carboxylic acid] | promotion of the mannosidase activity | – | – | –
3 | O=C1NC[C@@H](O)[C@@H](O)[C@]1(O)CO [Compound 170, (3R,4R,5R)-3,4,5-trihydroxy-3-(hydroxymethyl)piperidin-2-one] | promotion of the mannosidase activity | – | – | –
4 | OC[C@H](O)[C@@H]1NC[C@@](O)(CO)[C@H]1O [Compound 200, (2S,3S,4R)-2-((R)-1,2-dihydroxyethyl)-4-(hydroxymethyl)pyrrolidine-3,4-diol] | promotion of the mannosidase activity | – | – | –
5 | CC1(C)O[C@H]2[C@H](O)[C@@H](CO[Si](C)(C)C(C)(C)C)NC(=O)[C@H]2O1 [Compound 238, (3aS,6R,7R,7aS)-6-((tert-butyldimethylsilyloxy)methyl)-7-hydroxy-2,2-dimethyltetrahydro-[1,3]dioxolo[4,5-c]pyridin-4(3aH)-one] | – | 30 | 127 % increase in absorbance compared to the water controls | Promotion of glycosidase activity: N-acetyl-β-D-gluc (Bovine kidney) [4]: 31 % increase in absorbance compared to the water controls
6 | O=C1N[C@H]([C@H](O)CO)[C@H](OCc2ccccc2)[C@@H]1OCc1ccccc1 [Compound 242, (3S,4S,5R)-3,4-bis(benzyloxy)-5-((S)-1,2-dihydroxyethyl)pyrrolidin-2-one] | – | 38 | 65 % increase in absorbance compared to the water controls | Promotion of glycosidase activity: N-acetyl-β-D-gluc (Bovine kidney) [4]: 59 % increase in absorbance compared to the water controls
7 | CCOP(=O)(CCCN1C[C@@H](N=[N+]=[N-])C[C@H]1CO)OCC [Compound 291, diethyl 3-((2S,4S)-4-azido-2-(hydroxymethyl)pyrrolidin-1-yl)propylphosphonate] | – | – | 49 % increase in absorbance compared to the water controls | Promotion of glycosidase activity: α-D-mannosidase (Jack bean) [7]: 43 % increase in absorbance compared to the water controls
8 | CCCCN1C[C@@H](N)C[C@H]1CO [Compound 292, ((2S,4S)-4-amino-1-butylpyrrolidin-2-yl)methanol] | – | – | – | Promotion of glycosidase activity: α-D-mannosidase (Jack bean) [7]: 34 % increase in absorbance compared to the water controls
9 | CN1C[C@H](O)C(O)[C@@H](O)C1 [Compound 299, (3S,5S)-1-methylpiperidine-3,4,5-triol] | – | – | – | Promotion of glycosidase activity: α-D-mannosidase (Jack bean) [7]: 35 % increase in absorbance compared to the water controls
10 | N[C@H]1CN(Cc2ccccc2)[C@@H](CO)[C@@H]1O [Compound 312, (2S,3R,4S)-4-amino-1-benzyl-2-(hydroxymethyl)pyrrolidin-3-ol] | – | 30 | 52 % increase in absorbance compared to the water controls | –
11 | CCCCCCCCCN1C[C@H](NC(C)=O)[C@@H](O)[C@@H]1CO [Compound 338, N-((3S,4R,5S)-4-hydroxy-5-(hydroxymethyl)-1-nonylpyrrolidin-3-yl)acetamide] | – | 35 | 170 % increase in absorbance compared to the water controls | –
12 | CCCCN1C[C@@H](NC(C)=O)C[C@H]1CO [Compound 350, N-((3S,5S)-1-butyl-5-(hydroxymethyl)pyrrolidin-3-yl)acetamide] | – | 38 | 160 % increase in absorbance compared to the water controls | –
13 | N[C@@H]1CN(Cc2ccccc2)[C@H](CO)[C@H]1O [Compound 370, (2R,3S,4R)-4-amino-1-benzyl-2-(hydroxymethyl)pyrrolidin-3-ol] | – | 43 | 81 % increase in absorbance compared to the water controls | –
14 | N[C@H]1[C@H](O)[C@H](O)[C@@H](O)[C@H](O)[C@@H]1CO [Compound A] | strong stimulation | – | – | stimulation ([3]; Compound A alone): 90%
15 | O[C@H]1[C@H]2[C@H](O)CCCN2C[C@H]1O [swainsonine, reference compound] | does not cause promotion | – | – | inhibition of the mannosidase (in words) [3, 8]: total inhibition of the promoted activity

From patent US20110237538A1, “TREATMENT OF LYSOSOMAL STORAGE DISORDERS AND OTHER PROTEOSTATIC DISEASES” (SUMMIT CORPORATION PLC, priority 2008, published 2011)
